Assay results taken from patent US20250228865A1, “COMPOUNDS FOR ENHANCING READ THROUGH OF GENES CONTAINING PREMATURE TERMINATION CODONS AND METHODS FOR MAKING AND USING THE SAME” (Sanofi US Services Inc., priority 2022, published 2025).

Key:
[1] = tested on: recombinant human CFTR carrying the premature stop codon (PTC) mutation G542X; assay: CFTR-PTC mutant translation readthrough, Nanoluc tagged CFTR luminescence (G542X cell line); assay type: cell-based; conditions: in combination with G418, G542X cell line; for CFTR G542X ACTIVITY Fold 10 μM G-418: fold over 10 μM G-418; for EC50: 16HBE cells
In short: (§1)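 16HBE cells stably expressing Nanoluc-tagged human CFTR with G542X or R1162X, in medium with 3 μM VX-809, treated 48 h at 37 °C with compound (10-point, 2-fold, top 50 μM final) alone or with 10 μM G418. Live-cell Nanoluc luminescence normalised to a maximally effective G418 (125-250 μM).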

[2] = tested on: recombinant human CFTR carrying the premature stop codon (PTC) mutation R1162X; assay: CFTR-PTC mutant translation readthrough, Nanoluc tagged CFTR luminescence (R1162X cell line); assay type: cell-based; conditions: for CFTR R1162X ACTIVITY Fold 10 μM G-418: fold over 10 μM G-418, in combination with G418; for EC50: in combination with G418, 16HBE cells, read-out: CFTR R1162X ACTIVITY EC50
In short: as §1

SMILES	EC50 [1]	EC50 [2]	CFTR G542X ACTIVITY Fold 10 μM G-418 [1]	CFTR R1162X ACTIVITY Fold 10 μM G-418 [2]
Clc1cccc(Cl)c1COc1ccc(-n2cncn2)cc1 [1-[4-[(2,6-dichlorophenyl)methoxy]phenyl]-1,2,4-triazole]	1000 to 10000 nM	1000 to 10000 nM	A′ (A′ = ≥10X)	A′ (A′ = ≥10X)
Cc1cccc(C(F)(F)F)c1COc1cnc(-n2cc(CO)nn2)nc1	1000 to 10000 nM	1000 to 10000 nM	A′ (A′ = ≥10X)	A′ (A′ = ≥10X)
OC1CN(c2ncc(OCc3c(Cl)cccc3Cl)cn2)C1 [1-[5-[(2,6-dichlorophenyl)methoxy]pyrimidin-2-yl]azetidin-3-ol]	1000 to 10000 nM	1000 to 10000 nM	A′ (A′ = ≥10X)	A′ (A′ = ≥10X)
NCc1cn(-c2ccc(OCc3c(Cl)cccc3Cl)cn2)nn1 [[1-[5-[(2,6-dichlorophenyl)methoxy]-2-pyridyl]triazol-4-yl]methanamine]	1000 to 10000 nM	1000 to 10000 nM	A′ (A′ = ≥10X)	A′ (A′ = ≥10X)
OCc1cn(-c2ncc(OCc3c(Cl)cccc3OC(F)F)cn2)cn1	1000 to 10000 nM	1000 to 10000 nM	A′ (A′ = ≥10X)	B′ (B′ = ≥5X to <10X)
O=C1OC(CO)CN1c1ccc(OCc2c(Cl)cccc2Cl)cc1 (stereo not drawn) [3-[4-[(2,6-dichlorophenyl)methoxy]phenyl]-5-(hydroxymethyl)oxazolidin-2-one]	1000 to 10000 nM	1000 to 10000 nM	B′ (B′ = ≥5X to <10X)	B′ (B′ = ≥5X to <10X)
CNCC1CN(c2ncc(OCc3c(Cl)cccc3Cl)cn2)CCO1 (stereo not drawn)	1000 to 10000 nM	1000 to 10000 nM	B′ (B′ = ≥5X to <10X)	B′ (B′ = ≥5X to <10X)
CC1(C)NC(=O)N(c2ccc(OCc3c(Cl)cccc3C(F)(F)F)cn2)C1=O	1000 to 10000 nM	1000 to 10000 nM	A′ (A′ = ≥10X)	B′ (B′ = ≥5X to <10X)
O=CN[C@@H](CO)C(=O)Nc1ccc(OCc2c(Cl)cccc2Cl)cn1	> 10000 nM	> 10000 nM	–	B′ (B′ = ≥5X to <10X)
CCCCN1CC(=O)N(c2ccc(OCc3c(C)cccc3C(F)(F)F)cc2)C1=O	1000 to 10000 nM	1000 to 10000 nM	B′ (B′ = ≥5X to <10X)	B′ (B′ = ≥5X to <10X)
OCc1ncn(-c2ncc(OCc3c(Cl)cccc3Cl)cn2)n1	1000 to 10000 nM	1000 to 10000 nM	C′ (C′ = <5X)	C′ (C′ = <5X)
O=C(O)C1CCCN(c2ncc(OCc3c(Cl)cccc3C(F)(F)F)cn2)C1 (stereo not drawn) [1-(5-{[2-chloro-6-(trifluoromethyl)phenyl]methoxy]pyrimidin-]	1000 to 10000 nM	> 10000 nM	–	–
Cc1cccc(C(F)(F)F)c1COc1cnc(N2CC[S+]([O-])CC2)nc1	1000 to 10000 nM	1000 to 10000 nM	A′ (A′ = ≥10X)	A′ (A′ = ≥10X)
OCc1cc(-c2ncc(OCc3c(Cl)cccc3Cl)cn2)[nH]n1 [Compound 252, [5-[5-[(2,6-dichlorophenyl)methoxy]pyrimidin-2-yl]-1H-pyrazol-3-yl]methanol]	1000 to 10000 nM	1000 to 10000 nM	A′ (A′ = ≥10X)	B′ (B′ = ≥5X to <10X)
CC1CC(CO)CN1c1ncc(OCc2c(Cl)cccc2Cl)cn1 (stereo not drawn)	1000 to 10000 nM	1000 to 10000 nM	A′ (A′ = ≥10X)	A′ (A′ = ≥10X)
O=C1O[C@H](CO)CN1c1ccc(OCc2c(Cl)cccc2C(F)(F)F)cn1	1000 to 10000 nM	1000 to 10000 nM	A′ (A′ = ≥10X)	A′ (A′ = ≥10X)
O=C1CN(c2ncc(OCc3c(Cl)cccc3Cl)cn2)CC(CO)N1 (stereo not drawn)	1000 to 10000 nM	1000 to 10000 nM	A′ (A′ = ≥10X)	A′ (A′ = ≥10X)
NC(=O)[C@H]1CCN(c2ncc(OCc3c(Cl)cccc3C(F)(F)F)cn2)C1	1000 to 10000 nM	1000 to 10000 nM	A′ (A′ = ≥10X)	A′ (A′ = ≥10X)
Cc1cccc(C(F)(F)F)c1COc1cnc(N2CCNCC2)nc1 [5-{[2-methyl-6-(trifluoromethyl)phenyl]methoxy}-2-(piperazin-1-yl)pyrimidine]	1000 to 10000 nM	1000 to 10000 nM	A′ (A′ = ≥10X)	A′ (A′ = ≥10X)
O=C1OC(CO)CN1c1ccc(OCc2c(Cl)cccc2C(F)(F)F)cn1 (stereo not drawn)	< 1000 nM	1000 to 10000 nM	A′ (A′ = ≥10X)	A′ (A′ = ≥10X)
NC(=O)C1CCN(c2ncc(OCc3c(Cl)cccc3Cl)cn2)C1 (stereo not drawn) [1-[5-[(2,6-dichlorophenyl)methoxy]pyrimidin-2-yl]pyrrolidine-3-carboxamide]	1000 to 10000 nM	1000 to 10000 nM	A′ (A′ = ≥10X)	A′ (A′ = ≥10X)
Cc1cccc(C(F)(F)F)c1COc1ccc(-n2cnc(CO)n2)nc1	< 1000 nM	< 1000 nM	A′ (A′ = ≥10X)	A′ (A′ = ≥10X)
Cc1cccc(C(F)(F)F)c1COc1ccc(-n2cc(CO)nn2)cc1 [[1-[4-[[2-methyl-6-(trifluoromethyl)phenyl]methoxy]phenyl]triazol-4-yl]methanol]	1000 to 10000 nM	1000 to 10000 nM	A′ (A′ = ≥10X)	A′ (A′ = ≥10X)
Cn1cc(-c2ccc(OCc3c(Cl)cccc3Cl)cn2)nn1 [5-[(2,6-dichlorophenyl)methoxy]-2-(1-methyltriazol-4-yl)pyridine]	1000 to 10000 nM	1000 to 10000 nM	A′ (A′ = ≥10X)	A′ (A′ = ≥10X)
Cc1cccc(C(F)(F)F)c1COc1cnc(N2C(=O)NC(C)(C)C2=O)nc1	1000 to 10000 nM	1000 to 10000 nM	A′ (A′ = ≥10X)	A′ (A′ = ≥10X)
Cc1cccc(C(F)(F)F)c1COc1cnc(-c2cc(CO)on2)nc1	< 1000 nM	1000 to 10000 nM	A′ (A′ = ≥10X)	A′ (A′ = ≥10X)
Cc1cccc(C(F)(F)F)c1COc1cnc(N2CCN3C(=O)COCC3C2)nc1 (stereo not drawn)	< 1000 nM	< 1000 nM	A′ (A′ = ≥10X)	A′ (A′ = ≥10X)

More lines, main results first:

EC50 [1]	EC50 [2]	SMILES	CFTR G542X ACTIVITY Fold 10 μM G-418 [1]	CFTR R1162X ACTIVITY Fold 10 μM G-418 [2]
< 1000 nM	< 1000 nM	CN(C)C(=O)N1CCN(c2ncc(OCc3c(Cl)cccc3Cl)cn2)CC1	B′ (B′ = ≥5X to <10X)	A′ (A′ = ≥10X)
< 1000 nM	< 1000 nM	CN1C(=O)CN(c2ccc(OCc3c(Cl)cccc3C(F)(F)F)cn2)C1=O	A′ (A′ = ≥10X)	A′ (A′ = ≥10X)
< 1000 nM	1000 to 10000 nM	FC(F)(F)c1cccc(Cl)c1COc1cnc(-n2cncn2)nc1 [5-[[2-chloro-6-(trifluoromethyl)phenyl]methoxy]-2-(1,2,4-triazol-1-yl)pyrimidine]	A′ (A′ = ≥10X)	A′ (A′ = ≥10X)
< 1000 nM	< 1000 nM	CCc1cccc(C(F)(F)F)c1COc1cnc(-n2ccc(CO)n2)nc1	A′ (A′ = ≥10X)	A′ (A′ = ≥10X)
< 1000 nM	1000 to 10000 nM	Cc1cccc(C(F)(F)F)c1COc1ccc(-n2cnc(CO)c2)nc1	A′ (A′ = ≥10X)	A′ (A′ = ≥10X)
< 1000 nM	1000 to 10000 nM	OC1CCCN(c2ncc(OCc3c(Cl)cccc3Cl)cn2)C1 (stereo not drawn) [1-[5-[(2,6-dichlorophenyl)methoxy]pyrimidin-2-yl]piperidin-3-ol]	A′ (A′ = ≥10X)	A′ (A′ = ≥10X)
< 1000 nM	< 1000 nM	CC1(O)CCN(c2ncc(OCc3c(Cl)cccc3C(F)(F)F)cn2)CC1	A′ (A′ = ≥10X)	A′ (A′ = ≥10X)
< 1000 nM	< 1000 nM	Cc1cccc(C(F)(F)F)c1COc1cnc(N2CCO[C@@H](CN)C2)nc1	A′ (A′ = ≥10X)	A′ (A′ = ≥10X)
< 1000 nM	1000 to 10000 nM	Cc1cccc(C(F)(F)F)c1COc1cnc(-n2cnc(CO)n2)nc1	A′ (A′ = ≥10X)	A′ (A′ = ≥10X)
< 1000 nM	< 1000 nM	OC[C@@H]1CN(c2ncc(OCc3c(Cl)cccc3C(F)(F)F)cn2)CCO1	A′ (A′ = ≥10X)	A′ (A′ = ≥10X)
< 1000 nM	< 1000 nM	Cc1cccc(C(F)(F)F)c1COc1ccc(N2C(=O)NC(C)(C)C2=O)cc1	A′ (A′ = ≥10X)	A′ (A′ = ≥10X)
< 1000 nM	1000 to 10000 nM	OCc1ncn(-c2ncc(OCc3c(Cl)cccc3C(F)(F)F)cn2)n1	A′ (A′ = ≥10X)	A′ (A′ = ≥10X)
